Columns and labels:
KDM2A = target: T1, KDM2A (Homo sapiens, UniProt Q9Y2K7); assay: High-content immunofluorescence (IF) assay, overexpressed full-length FLAG-tagged KDM in HeLa cells; type: cell-based; conditions: HeLa cells overexpressing WT KDM2A, 24 h; read-out: KDM2A, in cells, EC50 by IF assay (head: IC50)
T1 sequence (Q9Y2K7 1-1162): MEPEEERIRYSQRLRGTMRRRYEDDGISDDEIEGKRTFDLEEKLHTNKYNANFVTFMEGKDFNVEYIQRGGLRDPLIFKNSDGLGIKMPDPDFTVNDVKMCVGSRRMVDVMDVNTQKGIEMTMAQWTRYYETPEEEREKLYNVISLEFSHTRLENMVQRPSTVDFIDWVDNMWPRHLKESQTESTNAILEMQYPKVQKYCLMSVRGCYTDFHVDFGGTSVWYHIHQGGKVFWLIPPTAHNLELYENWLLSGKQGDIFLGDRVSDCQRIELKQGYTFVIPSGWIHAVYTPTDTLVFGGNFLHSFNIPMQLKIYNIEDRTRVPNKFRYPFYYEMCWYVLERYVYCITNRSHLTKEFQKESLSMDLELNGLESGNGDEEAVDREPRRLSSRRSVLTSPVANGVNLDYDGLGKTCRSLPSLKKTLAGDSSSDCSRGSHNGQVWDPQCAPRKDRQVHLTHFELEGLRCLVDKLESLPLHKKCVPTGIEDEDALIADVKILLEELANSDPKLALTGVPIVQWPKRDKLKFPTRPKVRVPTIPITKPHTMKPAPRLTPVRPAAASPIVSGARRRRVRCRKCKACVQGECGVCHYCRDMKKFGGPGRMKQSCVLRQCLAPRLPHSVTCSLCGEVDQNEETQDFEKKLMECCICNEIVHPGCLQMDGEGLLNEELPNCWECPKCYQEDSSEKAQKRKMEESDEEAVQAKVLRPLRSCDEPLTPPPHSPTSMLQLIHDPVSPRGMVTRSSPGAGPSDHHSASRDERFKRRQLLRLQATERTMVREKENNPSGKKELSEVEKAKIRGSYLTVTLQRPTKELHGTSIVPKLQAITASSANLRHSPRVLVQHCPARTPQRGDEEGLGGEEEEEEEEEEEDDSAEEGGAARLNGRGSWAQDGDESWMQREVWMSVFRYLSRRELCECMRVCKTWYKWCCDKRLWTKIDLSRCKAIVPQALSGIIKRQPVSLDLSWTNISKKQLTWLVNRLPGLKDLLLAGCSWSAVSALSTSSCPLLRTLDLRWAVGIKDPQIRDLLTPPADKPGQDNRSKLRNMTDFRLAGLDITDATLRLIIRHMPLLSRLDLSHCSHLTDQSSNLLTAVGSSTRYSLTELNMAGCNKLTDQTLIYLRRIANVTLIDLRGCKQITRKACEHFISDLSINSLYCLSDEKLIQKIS

KDM4A = target: T2, KDM4A (Homo sapiens, UniProt O75164, A482E); assay: as above; type: cell-based; conditions: HeLa cells transfected with KDM4A
T2 construct: transiently transfecting the full-length FLAG-tagged demethylase (WT) into cells; expressed in transfected cells; host or cells: HeLa
T2 sequence (O75164 1-1064 A482E): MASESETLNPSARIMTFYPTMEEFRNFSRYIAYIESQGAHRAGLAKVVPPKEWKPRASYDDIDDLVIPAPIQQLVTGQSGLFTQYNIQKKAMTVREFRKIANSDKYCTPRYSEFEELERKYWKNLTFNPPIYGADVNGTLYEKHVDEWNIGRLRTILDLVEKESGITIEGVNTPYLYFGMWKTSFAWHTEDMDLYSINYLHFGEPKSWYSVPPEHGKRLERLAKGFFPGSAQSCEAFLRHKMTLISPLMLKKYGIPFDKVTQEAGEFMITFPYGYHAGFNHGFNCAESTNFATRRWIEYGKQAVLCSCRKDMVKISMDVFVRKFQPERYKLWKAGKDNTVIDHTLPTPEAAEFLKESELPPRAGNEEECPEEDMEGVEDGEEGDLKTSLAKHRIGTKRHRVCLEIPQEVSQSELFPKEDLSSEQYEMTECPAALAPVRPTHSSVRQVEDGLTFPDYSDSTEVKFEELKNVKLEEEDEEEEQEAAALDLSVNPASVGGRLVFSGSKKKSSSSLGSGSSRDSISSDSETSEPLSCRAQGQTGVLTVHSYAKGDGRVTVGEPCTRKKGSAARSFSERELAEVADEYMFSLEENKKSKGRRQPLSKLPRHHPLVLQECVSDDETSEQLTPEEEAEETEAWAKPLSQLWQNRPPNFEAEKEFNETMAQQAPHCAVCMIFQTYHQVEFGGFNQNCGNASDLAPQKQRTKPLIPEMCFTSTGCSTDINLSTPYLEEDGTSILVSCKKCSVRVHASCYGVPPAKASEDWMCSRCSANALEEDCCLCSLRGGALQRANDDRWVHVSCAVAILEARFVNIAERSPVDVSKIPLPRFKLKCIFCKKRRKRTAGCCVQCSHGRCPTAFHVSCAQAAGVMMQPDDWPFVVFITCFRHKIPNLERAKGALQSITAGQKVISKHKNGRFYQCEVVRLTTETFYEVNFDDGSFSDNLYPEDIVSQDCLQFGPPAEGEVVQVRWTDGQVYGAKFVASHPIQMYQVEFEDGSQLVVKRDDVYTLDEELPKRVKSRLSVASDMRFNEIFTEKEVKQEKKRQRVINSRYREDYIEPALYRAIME

Row | Effect on H3K9me3 levels in KDM4A IF assay, in words (KDM4A) | SMILES | EC50 (KDM2A) [µM]
1 |  | CCN(CCN(C)C)C(=O)CNCc1cncc(C(N)=O)c1 [KDOAM-32] | > 100
2 | no effect | O=c1[nH]cnc2c(-n3cc(CCN4CCC(c5cccc(Cl)c5)CC4)cn3)cccc12 [CCT366293, 8-(4-(2-(4-(3-Chlorophenyl)piperidin-1-yl)ethyl)-1H-pyrazol-1-yl)quinazolin-4(3H)-one] | 

From paper PMC5333395, “Assessing histone demethylase inhibitors in cells: lessons learned” (Epigenetics & Chromatin, 2017)
